PubChem BioAssay (NCI)
Values joined by “and” are separate entries in the source; they are usually repeats but may differ in a detail not shown here. Equal entries are not always repeated.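 How tested: cells in 96-well plates exposed to compound for 48 hours at five concentrations. GI50: concentration for 50% inhibition of growth. Definition used: TGI = concentration required for complete inhibition of growth.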

How the values were obtained:
Experiment in all cases: DTP human tumour cell line panel, 48 h
[1] = test system: NCI-H522 lung
[2] = test system: UACC-257 melanoma
[3] = test system: A549 NSCLC
[4] = test system: DU-145 prostate
[5] = test system: HCT-15 colon
[6] = test system: RPMI-8226 leukemia
[7] = test system: T-47D breast
[8] = test system: MCF7 breast
[9] = test system: HOP-62 NSCLC
[10] = test system: MDA-MB-231 breast

## COCCNCC(O)Cn1c2ccc(Cl)cc2c2cc(Cl)ccc21 (configuration not stated)
[1]
  GI50: 2.03 µM
  TGI: 3.89 µM
[2]
  GI50: 1.68 µM
  TGI: 3.35 µM
[3]
  GI50: 1.79 µM
  TGI: 3.74 µM
[4]
  GI50: 2.12 µM
  TGI: 4.05 µM
[5]
  GI50: 2.06 µM
  TGI: 5 µM
[6]
  GI50: 2.14 µM
  TGI: 5.25 µM
[7]
  GI50: 1.97 µM
  TGI: 4.03 µM
[8]
  GI50: 1.81 µM
  TGI: 3.49 µM
[9]
  GI50: 1.87 µM
  TGI: 3.45 µM
[10]
  GI50: 1.67 µM
  TGI: 3.4 µM

## CS(=O)(=O)c1nccc(-c2c(-c3cccc(OCc4ccc(F)cc4)c3)nc3sccn23)n1
[1]
  GI50: 8.15 µM
  TGI: > 100 µM
[2]
  GI50: 5 µM
  TGI: 14.8 µM
[3]
  GI50: > 81.8 µM
  TGI: > 100 µM
[4]
  GI50: 1.92 µM
  TGI: 3.41 µM
[5]
  GI50: 10.9 µM
  TGI: > 100 µM
[6]
  GI50: 5.16 µM
  TGI: > 51 µM
[7]
  GI50: 9.52 µM
  TGI: > 100 µM
[8]
  GI50: 8.31 µM
  TGI: > 100 µM
[9]
  GI50: 57.2 µM
  TGI: > 100 µM
[10]
  GI50: 34.3 µM
  TGI: > 100 µM

## Cc1c(Cl)cccc1NC(=O)CC1Sc2ccccc2NC1=O (configuration not stated)
[1]
  TGI: 64.7 µM and 79.7 µM
[2]
  GI50: 38.7 µM and 5.35 µM
  TGI: > 94.7 µM and 37.8 µM
[3]
  TGI: 54.2 µM and > 100 µM
[4]
  TGI: > 100 µM
[5]
  GI50: 8.53 µM and 41.9 µM
  TGI: > 100 µM
[6]
  TGI: > 100 µM
[7]
  TGI: 86.5 µM
[8]
  TGI: > 87 µM
[9]
  TGI: 42.3 µM and 31.1 µM
[10]
  TGI: 32.1 µM

## COc1ccc(-c2nc(-c3nc4ccc(F)cc4[nH]3)cc3c2[nH]c2ccccc23)cc1
[1]
  GI50: 2 µM
  TGI: 5.97 µM
[2]
  GI50: 2.01 µM
  TGI: 4.8 µM
[3]
  GI50: 2.21 µM
  TGI: 7.5 µM
[4]
  GI50: 2.99 µM
  TGI: 9.65 µM
[5]
  GI50: 2.82 µM
  TGI: > 100 µM
[6]
  GI50: 1.16 µM
  TGI: 3.92 µM
[7]
  GI50: 2.56 µM
  TGI: > 100 µM
[8]
  GI50: 2.53 µM
  TGI: > 100 µM
[9]
  GI50: 3.22 µM
  TGI: 74.7 µM
[10]
  GI50: 2.3 µM
  TGI: 8.95 µM

## CCN(CC)c1ccc(NC(C(=O)c2ccccc2)c2ccccc2)cc1 (configuration not stated)
[1]
  GI50: 2.3 µM
  TGI: 7.05 µM
[2]
  GI50: 4.86 µM
  TGI: 22.1 µM
[3]
  GI50: 10.5 µM
  TGI: 54 µM
[4]
  GI50: 2.24 µM
  TGI: 5.08 µM
[5]
  GI50: 1.96 µM
  TGI: 5.31 µM
[6]
  GI50: 2.61 µM
  TGI: 12.3 µM
[7]
  GI50: 3.35 µM
  TGI: 29 µM
[8]
  GI50: 2.23 µM
  TGI: 16.6 µM
[9]
  GI50: 4.31 µM
  TGI: 16.5 µM
[10]
  GI50: 2.85 µM
  TGI: 10.3 µM

## COc1ccccc1-c1cc2c3c(nc4ccccc42)C(=O)c2cccnc2-c3n1
[1]
  GI50: 1.65 µM
  TGI: 5.23 µM
[2]
  GI50: 7.22 µM
  TGI: 22.8 µM
[3]
  GI50: 10 µM
  TGI: 24 µM
[4]
  GI50: 13.8 µM
  TGI: 28.5 µM
[5]
  GI50: 3.55 µM
  TGI: 8.62 µM
[6]
  GI50: 34.6 µM
  TGI: > 100 µM
[7]
  GI50: 9.08 µM
  TGI: > 94.6 µM
[8]
  GI50: 1.44 µM
  TGI: 3.95 µM
[9]
  GI50: 14.4 µM
  TGI: 48.2 µM
[10]
  GI50: 18.2 µM
  TGI: > 56.7 µM

## CCC(=O)Sc1ccccc1C(=O)Nc1ccc(Cl)cc1
[1]
  GI50: 6.21 µM
  TGI: 27.1 µM
[2]
  GI50: 31.7 µM
  TGI: > 100 µM
[3]
  GI50: 11.7 µM
  TGI: > 100 µM
[4]
  GI50: 22.1 µM
  TGI: 74.3 µM
[5]
  GI50: 7.79 µM
  TGI: > 100 µM
[6]
  GI50: 4.32 µM
  TGI: 29.3 µM
[7]
  GI50: 8.96 µM
  TGI: 38.6 µM
[8]
  GI50: 3.86 µM
  TGI: 36.2 µM
[9]
  GI50: 12.5 µM
  TGI: 34.2 µM
[10]
  GI50: 11.2 µM
  TGI: 45.7 µM

## CO/N=C(\c1ccccc1)c1cnn(-c2ccccc2)c1N
[1]
  GI50: > 25 µM
  TGI: > 25 µM
[2]
  GI50: > 25 µM
  TGI: > 25 µM
[3]
  GI50: > 25 µM
  TGI: > 25 µM
[4]
  GI50: > 25 µM
  TGI: > 25 µM
[5]
  GI50: > 25 µM
  TGI: > 25 µM
[6]
  GI50: > 25 µM
  TGI: > 25 µM
[7]
  GI50: > 25 µM
  TGI: > 25 µM
[8]
  GI50: > 25 µM
  TGI: > 25 µM
[9]
  GI50: > 25 µM
  TGI: > 25 µM
[10]
  GI50: > 25 µM
  TGI: > 25 µM

## O=C1Nc2ccc(Cl)cc2/C1=C\c1c(-c2ccc(F)cc2)nc2ccccn12
[1]
  GI50: 2.17 µM
  TGI: 5.42 µM
[2]
  GI50: 3.11 µM
  TGI: 16.3 µM
[3]
  GI50: 2.14 µM
  TGI: 5.17 µM
[4]
  GI50: 2.67 µM
  TGI: 7.15 µM
[5]
  GI50: 3.15 µM
  TGI: 16.2 µM
[6]
  GI50: 2.25 µM
  TGI: 7.86 µM
[7]
  GI50: 4.35 µM
  TGI: 19.6 µM
[8]
  GI50: 2.71 µM
  TGI: 10.7 µM
[9]
  GI50: 2.35 µM
  TGI: 6.32 µM
[10]
  GI50: 3.5 µM
  TGI: 36.6 µM

## COc1ccc(-c2cc3cccc(OC)c3c(=O)o2)cc1OC
[1]
  GI50: 48.6 µM
  TGI: > 100 µM
[2]
  GI50: 92.8 µM
  TGI: > 100 µM
[3]
  GI50: 59.4 µM
  TGI: > 100 µM
[4]
  GI50: 0.795 µM
  TGI: > 100 µM
[5]
  GI50: 23.4 µM
  TGI: > 100 µM
[6]
  GI50: 29.7 µM
  TGI: > 100 µM
[7]
  GI50: 28.3 µM
  TGI: > 100 µM
[8]
  GI50: 32 µM
  TGI: > 100 µM
[9]
  GI50: 62.5 µM
  TGI: > 100 µM
[10]
  GI50: 22.8 µM
  TGI: > 100 µM
